Columns and labels:
[1] = system: recombinant CLIP-170^488 binding to taxol-stabilized MTs; assay: CLIP-170^488 binding to taxol-stabilized MTs (specificity control); conditions: compound B at 50 µmol/l
From the text: Figure 2 Compound B prevents the recombinant Ndc80 kinetochore complex from binding to taxol-stabilized microtubules. Effect of compound B (50 µmol/l) on binding of the Ndc80^488 complex to rhodamine-labeled, taxol-stabilized MTs as assayed using inverted wide-field fluorescence microscopy. The scale bar represents 4 µm (A). Structure of compound B; 6-furan-2-yl-3-methyl-4-oxo-4,5,6,7-tetrahydro-1H-indole-2-carboxylic acid (tetrahydro-furan-2-yl)methyl ester (B). Measurement of the IC50 value of compound B using total internal reflection fluorescence microscopy. The scale bar represents 4 µm (C). Compound B (50 µmol/l) prevented MT-associating protein CLIP-170^488, used as a specificity control, from binding to taxol-stabilized MTs. The scale bar represents 4 µm (D). […] The scale bar represents 4 µm (E).
A compound inhibiting the Ndc80^488 complex-MT interaction could act either against the complex or against the MTs. To probe the specificity of compound B toward the Ndc80^488 complex, we examined its ability to inhibit MT binding of recombinant CLIP-170^488, a MT plus-end tracking protein.

HeLa cells = assay: Ability of the compound to enter cells; type: cell-based, human
From the text: During the last twenty-five years antispindle drugs have been used with great success in the fight against cancer. However, as cancer cells are developing resistance against these drugs, there is an urgent need for compounds targeting alternative mitotic targets. As kinetochores orchestrate chromosome segregation and comprise >100 proteins, they are appealing mitosis-specific drug targets. The high antitumor activity of compounds inhibiting kinetochore regulators (Aurora kinase, PLK1) and the kinetochore-associated kinesin CENP-E supports the concept of targeting kinetochore function to eradicate proliferating cells, [9], [19]. The complexity of kinetochores, the lack of insight into intrakinetochore protein-protein contacts and protein-activity relationships, as well as the difficulty to produce kinetochore subunits in large quantities for use in in vitro screens has long hampered the conversion of structural kinetochore components into anticancer drug targets. […] As the Ndc80 complex can be produced recombinantly in high quantity and because the recombinant complex is fully active as shown following injection in cells we focused on this complex to screen for inhibitors of kinetochore-MT binding. […]

Q: Which results are given for N#CC(=Cc1ccc(-c2ccc(C(=O)O)cc2)o1)c1nc2ccccc2[nH]1 [compound C, 4-5-2-1H-benzimidazol-2-yl-2-cyano-vinyl-furan-2-yl-benzoic acid]?
A: Effect on binding of CLIP-170^488 to taxol-stabilized MTs [1]: did not inhibit; Cell entry (HeLa cells): inability of the compound to enter cells

Reference: publication PMC2904697, “A Screen for Kinetochore-Microtubule Interaction Inhibitors Identifies Novel Antitubulin Compounds” (PLoS ONE, 2010)
